Measured values taken from patent publication US11986480B2, “Heterocyclic compound” (TOHOKU UNIVERSITY, priority 2017, dated 2024).

Target: T1, MetAP2 (Homo sapiens, UniProt P50579)
T1 construct: endogenous in cells; host or cells: HeLa
Assay: Test Example 3: HeLa cells, Western blot MetAP2/actin (Testing Method C)
Format: cell-based
Details: MetAP2, 0.1 uM, 24 hours, 1 or less = degradation promoted
Procedure: Test Example 3: Evaluation Using HeLa Cell (Testing Method C)
HeLa cells were inoculated to Dulbecco's Modified Eagle Medium (DMEM) and cultured for 24 hours. A test compound (specifically, compounds of Examples 47 to 52, 59 and 60) was added thereto at the final concentration shown in Table 2, followed by incubation for 24 hours under conditions of 37° C./5% CO2. The cells were washed with PBS three times and treated with a cell lysis solution containing a proteolytic enzyme inhibitor to obtain a cell extract. The cell extract was subjected to SDS-PAGE. After the electrophoresis, Brd4, FKBP12 or MetAP2 and actin were detected by Western blot. The ratio of the Brd4, FKBP12 or MetAP2/actin value of the drug-treated cells to the Brd4, FKBP12 or MetAP2/actin value of a control group in drug-untreated cells was regarded as an activity value. A value of 1 or less represents that degradation of Brd4, FKBP12 or MetAP2 was promoted.

T1 sequence (P50579 whole entry): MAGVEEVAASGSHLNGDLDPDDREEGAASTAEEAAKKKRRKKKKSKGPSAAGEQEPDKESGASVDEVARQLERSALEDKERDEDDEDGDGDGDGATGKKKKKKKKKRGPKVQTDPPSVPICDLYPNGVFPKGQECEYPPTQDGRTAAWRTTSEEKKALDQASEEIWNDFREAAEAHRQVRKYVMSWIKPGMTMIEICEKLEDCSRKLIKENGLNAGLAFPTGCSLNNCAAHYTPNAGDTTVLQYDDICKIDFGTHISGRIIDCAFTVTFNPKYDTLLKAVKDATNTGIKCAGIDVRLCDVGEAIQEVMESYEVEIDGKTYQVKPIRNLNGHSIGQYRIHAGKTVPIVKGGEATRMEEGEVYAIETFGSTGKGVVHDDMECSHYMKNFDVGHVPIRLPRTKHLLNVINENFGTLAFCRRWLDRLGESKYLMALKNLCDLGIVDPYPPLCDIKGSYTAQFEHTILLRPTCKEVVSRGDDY

## CO[C@@H]1[C@H](OC(=O)NCCCOCCOCCOCCCNC(=O)[C@H](CSc2nc3c(=O)[nH]c(N)nc3n2Cc2ccc(F)cc2)NC(C)=O)CC[C@]2(CO2)[C@H]1[C@@]1(C)O[C@@H]1CC=C(C)C [Example 60, (3R,5S,6R)-5-Methoxy-4-((2R,3R)-2-methyl-3-(3-methylbut-2-en-1-yl)oxiran-2-yl)-1-oxaspiro[2.5]oct-6-yl (3-(2-(2-(3-((N-acetyl-S-(2-amino-9-(4-fluorobenzyl)-6-oxo-6,9-dihydro-1H-purin-8-yl)-L-cysteinyl)amino)propoxy)ethoxy)ethoxy)propyl)carbamate]
  Activity value (MetAP2/actin of drug-treated cells relative to drug-untreated control): 0.7
